The supplement of paper PMC12137928

Tested on: HCT116
Conditions: 72 h
In short: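 For IC50 and maximal efficacy, four-parameter Hill fits were used. Input values were CellTiter-Glo luminescence from HCT116 cells seeded at 250 per well in 1536-well plates, normalized to vehicle (0%) and positive control (-100%). Pattern correction followed normalization.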

SMILES	IC50 cell viability (ICRF193 0 nM)	IC50 cell viability (ICRF193 200 nM)
Cc1nc(NS(=O)(=O)c2ccc(N)cc2)nc(C)c1Br [Sulfabromomethazine]	> 45.8 µM	> 45.8 µM
CC(=O)NS(=O)(=O)c1ccc(N)cc1 [Sulfacetamide]	> 45.8 µM	> 45.8 µM
Nc1ccc(S(=O)(=O)Nc2ccc(Cl)nn2)cc1 [Sulfachloropyridazine]	> 45.8 µM	> 45.8 µM
CCn1ccc(NS(=O)(=O)c2ccc(N)cc2)nc1=O [Sulfacytine]	> 45.8 µM	> 45.8 µM
COc1cc(NS(=O)(=O)c2ccc(N)cc2)nc(OC)n1 [Sulfadimethoxine]	> 45.8 µM	> 45.8 µM
COc1ncnc(NS(=O)(=O)c2ccc(N)cc2)c1OC [Sulfadoxine]	> 45.8 µM	> 45.8 µM
CCOc1ccc(NS(=O)(=O)c2ccc(N)cc2)nn1 [Sulfaethoxypyridazine]	> 45.8 µM	> 45.8 µM
N=C(N)NS(=O)(=O)c1ccc(N)cc1 [Sulfaguanidine]	> 45.8 µM	> 45.8 µM
COc1nccnc1NS(=O)(=O)c1ccc(N)cc1 [Sulfalene]	> 45.8 µM	> 45.8 µM
Cc1ccnc(NS(=O)(=O)c2ccc(N)cc2)n1 [Sulfamerazine]	> 45.8 µM	> 45.8 µM
COc1cnc(NS(=O)(=O)c2ccc(N)cc2)nc1 [Sulfameter]	> 45.8 µM	> 45.8 µM
Cc1cc(C)nc(NS(=O)(=O)c2ccc(N)cc2)n1 [Sulfamethazine]	> 45.8 µM	> 45.8 µM
Cc1nnc(NS(=O)(=O)c2ccc(N)cc2)s1 [Sulfamethizole]	> 45.8 µM	> 45.8 µM
COc1cc(NS(=O)(=O)c2ccc(N)cc2)nc(C)n1 [Sulfamethomidine]	> 45.8 µM	> 45.8 µM
Cc1cc(NS(=O)(=O)c2ccc(N)cc2)no1 [Sulfamethoxazole]	> 45.8 µM	> 45.8 µM
COc1ccc(NS(=O)(=O)c2ccc(N)cc2)nn1 [Sulfamethoxypyridazine]	> 45.8 µM	> 45.8 µM
COc1cc(NS(=O)(=O)c2ccc(N)cc2)ncn1 [Sulfamonomethoxine]	> 45.8 µM	> 45.8 µM
Nc1ccc(S(N)(=O)=O)cc1 [Sulfanilamide]	> 45.8 µM	> 45.8 µM
CC(=O)Nc1ccc(S(=O)(=O)Nc2ccc([N+](=O)[O-])cc2)cc1 [Sulfanitran]	> 45.8 µM	> 45.8 µM
Nc1ccc(S(=O)(=O)Nc2ccnn2-c2ccccc2)cc1 [Sulfaphenazole]	> 45.8 µM	> 45.8 µM
Nc1ccc(S(=O)(=O)Nc2ccccn2)cc1 [Sulfapyridine]	> 45.8 µM	> 45.8 µM
Nc1ccc(S(=O)(=O)Nc2cnc3ccccc3n2)cc1 [Sulfaquinoxaline]	> 45.8 µM	> 45.8 µM
O=C(O)c1cc(/N=N/c2ccc(S(=O)(=O)Nc3ccccn3)cc2)ccc1O [Sulfasalazine]	> 45.8 µM	> 45.8 µM
Nc1ccc(S(=O)(=O)Nc2nccs2)cc1 [Sulfathiazole]	> 45.8 µM	> 45.8 µM
NC(=S)NS(=O)(=O)c1ccc(N)cc1 [Sulfathiourea]	> 45.8 µM	> 45.8 µM
Cc1cc(NS(=O)(=O)c2ccc(N)cc2)nc(C)n1 [Sulfisomidine]	> 45.8 µM	> 45.8 µM
CC(=O)N(c1onc(C)c1C)S(=O)(=O)c1ccc(N)cc1 [Sulfisoxazole acetal]	> 45.8 µM	> 45.8 µM
Cc1noc(NS(=O)(=O)c2ccc(N)cc2)c1C [Sulfisoxazole]	> 45.8 µM	> 45.8 µM
O=C1OC(c2ccc(O)c(S(=O)(=O)O)c2)(c2ccc(O)c(S(=O)(=O)O)c2)c2c(Br)c(Br)c(Br)c(Br)c21 [Sulfobromophthalein]	> 45.8 µM	> 45.8 µM
